From patent US20260152484A1, “HETEROCYCLIC COMPOUNDS AS TRIGGERING RECEPTOR EXPRESSED ON MYELOID CELLS 2 AGONISTS” (Vigil Neuroscience, Inc., priority 2021, published 2026)

Biological target: T1, human TREM2 (Homo sapiens, UniProt Q9NZC2)
T1 construct: expressed in transfected cells; host or cells: HEK293T (HEK293T-hTREM2 cells)
Assay: Cellular phosphorylation of Syk (AlphaLisa) in HEK293T-hTREM2 cells, TREM2 agonist potency
Assay type: cell-based
Conditions: HEK293 cells expressing human TREM2 and DAP12; pSyk AlphaLisa; Table D
Description: In Vitro Measurement of Triggering Receptor Expressed on Myeloid Cells 2 Activity Using Cellular Phosphorylation of Spleen Tyrosine Kinase (“Syk”) Assays
Measurement of TREM2 agonist potency was done using a HEK cell line expressing human TREM2 and DAP12 (HEK293T-hTREM2 cells). Binding of small molecules to, and activation of, TREM2 increases the phosphorylation of Syk. The resultant levels of Syk phosphorylation are measured using a commercial AlphaLisa reagent kit. To perform the assay, HEK-hTREM2 cells were plated at 14,000 cells per well in a 384 well plate, in 25 μL of complete growth media and incubated at 37° C., 5% CO2 for 20-24 hours.
Prior to the assay, test compounds were diluted in the 384 well plates in assay buffer and allowed to equilibrate for 30 minutes. Growth media was removed from cell plates by inversion on blotting paper, and 25 μL of test articles in assay buffer was added to cells. Cells were incubated for 45 minutes at room temperature. After 45 minutes, assay buffer was removed and 10 μL of lysis buffer was added. Plates were shaken for 20 minutes at 350 RPM at room temperature. After complete lysis, AlphaLisa reagents were added to the lysate, and fluourescence intensity was measured using a Perkin Elmer Envision plate reader. Intensities were used to generate a standard curve, and % activation was calculated. Curve fitting was performed using Prism v9 software, log(agonist) vs response—variable slope (four parameters), and EC50s were calculated from the curve fit.
The results presented in Table D have been generated with the in vitro assay described above. This assay may be used to test any of the compounds described herein to assess and characterize a compound's ability to act as an agonist of TREM2.

T1 sequence (Q9NZC2 19-230): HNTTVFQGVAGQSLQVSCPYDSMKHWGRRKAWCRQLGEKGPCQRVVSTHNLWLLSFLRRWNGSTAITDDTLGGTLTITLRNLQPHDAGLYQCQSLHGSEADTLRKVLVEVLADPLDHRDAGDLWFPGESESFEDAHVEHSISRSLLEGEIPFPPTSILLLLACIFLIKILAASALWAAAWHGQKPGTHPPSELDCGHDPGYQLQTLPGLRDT
T1 sequence (O43914 22-113 partner): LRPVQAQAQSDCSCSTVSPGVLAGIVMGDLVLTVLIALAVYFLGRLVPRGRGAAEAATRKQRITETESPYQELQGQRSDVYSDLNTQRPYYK

SMILES | EC50
CC(C)C(=O)Nc1nc2c(=O)n(CCc3ccccc3)nc(-c3ccc(Cl)cc3)c2s1 [compound 35, N-[7-(4-chlorophenyl)-4-oxo-5-(2-phenylethyl)thiazolo[4,5-d]pyridazin-2-yl]-2-methyl-propanamide] | 3 to 100 µM
O=c1c2nc(NCC3CC3)sc2c(-c2ccc(Cl)cc2)nn1CCc1ccccc1 [compound 36, 7-(4-chlorophenyl)-2-(cyclopropylmethylamino)-5-(2-phenylethyl)thiazolo[4,5-d]pyridazin-4-one] | 3 to 100 µM
O=c1c2nc(NCCc3ccccc3)sc2c(-c2ccc(Cl)cc2)nn1CCc1ccccc1 [compound 37, 7-(4-chlorophenyl)-5-(2-phenylethyl)-2-(2-phenylethylamino)thiazolo[4,5-d]pyridazin-4-one] | 3 to 100 µM
Cc1nc2c(=O)n(-c3ccc(C(=O)NC(C)C)cc3)nc(-c3ccc(Cl)cc3)c2s1 [compound 38, 4-(7-(4-chlorophenyl)-2-methyl-4-oxothiazolo[4,5-d]pyridazin-5(4H)-yl)-N-isopropylbenzamide] | 3 to 100 µM
Cc1nc2c(=O)n(CCc3ccccc3)nc(-c3ccc(O)cc3)c2s1 [compound 39, 7-(4-hydroxyphenyl)-2-methyl-5-phenethylthiazolo[4,5-d]pyridazin-4(5H)-one] | 3 to 100 µM
COc1ccc(-c2nn(CCc3ccccc3)c(=O)c3nc(C)sc23)cc1 [compound 40, 7-(4-methoxyphenyl)-2-methyl-5-phenethylthiazolo[4,5-d]pyridazin-4(5H)-one] | 3 to 100 µM
Cc1nc2c(=O)n(-c3ccc(OC(F)(F)F)cc3)nc(-c3ccc(Cl)cc3)c2s1 [compound 41, 7-(4-chlorophenyl)-2-methyl-5-(4-(trifluoromethoxy)phenyl)thiazolo[4,5-d]pyridazin-4(5H)-one] | 3 to 100 µM
Cc1nc2c(=O)n(-c3ccc(C(=O)O)cc3)nc(-c3ccc(Cl)cc3)c2s1 [compound 42, 4-(7-(4-chlorophenyl)-2-methyl-4-oxothiazolo[4,5-d]pyridazin-5(4H)-yl)benzoic acid] | 0.05 to 0.5 µM
